Measurements from ChEMBL document CHEMBL5052835, “Slc26a3 inhibitors and use thereof” (2021).
The source made the active and inactive calls. No cut-off for these calls is given here.

Assays:
[1] = test system: Mus musculus; test: In vivo inhibition of slc26a3 in loperamide-induced constipation model of female CD-1 mouse at 5 mg/kg, po co-administered with tenapanor assessed as reduction in stool water content; format: functional, organism-based
[2] = test system: Mus musculus; test: In vivo inhibition of slc26a3 in loperamide-induced constipation model of cystic fibrosis mouse at 5 mg/kg, po assessed as reduction in stool water content; format: functional, organism-based
[3] = test system: Jejunum; test: Inhibition of fluid absorption in mid-jejunal loops isolated from female CD-1 mouse at 10 uM assessed as effect on reduction in loop weight/length ratio; format: functional, tissue-based
[4] = test system: HBE; test: Inhibition of CaCC in human HBE cells at 10 uM pretreated with ATP assessed as effect on short-circuit current responses; format: cell-based
[5] = organism: Mus musculus; test: Inhibition of mouse CFTR at 10 uM measured by cell-based fluorescence assay
[6] = test system: Jejunum; test: Inhibition of fluid absorption in mid-jejunal loops isolated from female CD-1 mouse at 10 uM assessed as effect on reduction in loop weight/length ratio in presence of 10 microM tenapanor; format: functional, tissue-based
[7] = target: T1, Chloride anion exchanger (Mus musculus) (UniProt Q9WVC8); test: Inhibition of mouse Slc26a3 transfected in rat FRT cells at 10 uM preincubated with forskolin, 8-Br-cGMP and PMA and measured by fluorescence assay relative to control; format: cell-based
T1 sequence (whole entry): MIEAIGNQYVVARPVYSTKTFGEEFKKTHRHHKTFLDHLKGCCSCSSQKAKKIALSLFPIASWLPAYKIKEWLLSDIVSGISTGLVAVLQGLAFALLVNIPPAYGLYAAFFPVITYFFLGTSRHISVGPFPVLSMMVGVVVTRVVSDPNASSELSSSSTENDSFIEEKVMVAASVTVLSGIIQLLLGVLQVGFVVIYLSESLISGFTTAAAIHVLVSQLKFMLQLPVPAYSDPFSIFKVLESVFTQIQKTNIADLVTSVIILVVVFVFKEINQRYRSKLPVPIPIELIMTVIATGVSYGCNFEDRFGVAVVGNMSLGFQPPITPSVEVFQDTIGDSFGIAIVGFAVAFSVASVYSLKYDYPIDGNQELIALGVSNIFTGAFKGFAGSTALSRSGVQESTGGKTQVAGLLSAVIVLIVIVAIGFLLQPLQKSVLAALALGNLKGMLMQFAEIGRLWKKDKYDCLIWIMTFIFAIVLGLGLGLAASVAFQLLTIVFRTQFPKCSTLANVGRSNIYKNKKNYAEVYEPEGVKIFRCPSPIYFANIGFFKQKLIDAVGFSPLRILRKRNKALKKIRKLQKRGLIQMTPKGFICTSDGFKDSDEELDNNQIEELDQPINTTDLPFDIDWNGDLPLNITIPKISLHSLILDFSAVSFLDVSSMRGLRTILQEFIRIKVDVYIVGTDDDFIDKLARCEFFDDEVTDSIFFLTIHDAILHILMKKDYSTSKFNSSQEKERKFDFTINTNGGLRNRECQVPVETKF

[8] = test system: FRT; test: Inhibition of Slc26a3-mediated Cl-/ I- exchange in rat FRT cells assessed as half-life measured by fluorescence assay; format: cell-based
[9] = test system: Mus musculus; test: Inhibition of oxalate absorption in sodium oxalate-induced acute hyperoxaluria mouse model at 5 mg/kg, po; format: functional, organism-based
[10] = target: T2, Anoctamin-1 (Mus musculus) (UniProt Q8BHY3); test: Inhibition of mouse TMEM16A at 10 uM measured by cell-based fluorescence assay
T2 sequence (whole entry): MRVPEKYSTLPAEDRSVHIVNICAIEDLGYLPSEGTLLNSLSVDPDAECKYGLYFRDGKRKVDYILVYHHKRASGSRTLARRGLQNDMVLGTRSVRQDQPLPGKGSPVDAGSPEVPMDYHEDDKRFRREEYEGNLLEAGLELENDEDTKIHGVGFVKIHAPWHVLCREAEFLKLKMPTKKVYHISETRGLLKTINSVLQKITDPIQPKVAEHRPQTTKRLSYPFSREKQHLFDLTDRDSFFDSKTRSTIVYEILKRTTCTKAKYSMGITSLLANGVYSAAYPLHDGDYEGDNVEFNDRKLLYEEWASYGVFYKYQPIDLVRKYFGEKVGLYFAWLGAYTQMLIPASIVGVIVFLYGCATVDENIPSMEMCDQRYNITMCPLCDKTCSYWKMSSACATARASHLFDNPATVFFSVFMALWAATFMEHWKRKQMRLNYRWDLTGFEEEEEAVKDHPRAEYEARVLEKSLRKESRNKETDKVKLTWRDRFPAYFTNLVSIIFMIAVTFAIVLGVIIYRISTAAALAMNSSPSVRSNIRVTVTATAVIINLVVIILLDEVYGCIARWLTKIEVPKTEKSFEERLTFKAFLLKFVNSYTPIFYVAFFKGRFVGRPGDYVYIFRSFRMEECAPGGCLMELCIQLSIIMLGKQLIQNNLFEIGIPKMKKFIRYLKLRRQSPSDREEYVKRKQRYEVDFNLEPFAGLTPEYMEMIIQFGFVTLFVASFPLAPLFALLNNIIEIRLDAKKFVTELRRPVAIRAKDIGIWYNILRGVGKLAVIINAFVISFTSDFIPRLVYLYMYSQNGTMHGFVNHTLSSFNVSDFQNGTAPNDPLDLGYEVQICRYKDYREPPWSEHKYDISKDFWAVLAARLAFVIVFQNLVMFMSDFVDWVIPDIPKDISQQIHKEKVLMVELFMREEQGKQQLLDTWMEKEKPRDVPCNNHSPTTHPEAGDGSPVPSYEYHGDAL

[11] = organism: Mus musculus; test: Inhibition of mouse Slc26a9-mediated Cl-/ I- exchange at 10 uM measured by cell-based fluorescence assay
[12] = Inhibition of Slc26a3-mediated HCO3- influx/Cl efflux in rat FRT cells measured by fluorescence assay; format: cell-based
[13] = test system: Mus musculus; test: In vivo inhibition of slc26a3 in loperamide-induced constipation model of female CD-1 mouse at 5 mg/kg, po assessed as reduction in stool weight; format: functional, organism-based

inhibition [7]: > 50%
inhibition [10]: inactive
IC50 [12]: 100 nM
Structure (SMILES): Cc1c(CC(=O)O)c(=O)oc2c(C)c(OCc3cccc(Br)c3)ccc12
inhibition [1]: Active
inhibition [2]: Active
inhibition [3]: Active
inhibition [4]: inactive
inhibition [5]: inactive
inhibition [6]: Active
T1/2 [8]: 30 s
inhibition [9]: Active
inhibition [11]: inactive
inhibition [13]: Active
